Measured values from the supplement of paper PMC10307832.

Columns and labels:
Assay in all cases: relative viability (nuclei count vs DMSO), 5 days (fraction); higher = more cells survive
Bosutinib = compound: COc1cc(Nc2c(C#N)cnc3cc(OCCCN4CCN(C)CC4)c(OC)cc23)c(Cl)cc1Cl [Bosutinib]
Summary of the method: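 Only plates meeting two conditions passed: control CV below 25% and at least one doubling. Lung cancer cell lines, kept overnight at 37 °C in 1536-well plates, were pinned with five library-drug doses (not always all listed) √10 apart on vehicle-anchored plates and grown 5 days without medium change. A one-step fix, permeabilisation and Hoechst stain preceded 4× imaging and MetaXpress nuclear counting. Viability equals treated-well nuclei divided by vehicle-well nuclei, as the median over plates.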

Bosutinib + Navitoclax = compound: COc1cc(Nc2c(C#N)cnc3cc(OCCCN4CCN(C)CC4)c(OC)cc23)c(Cl)cc1Cl [Bosutinib] + CC1(C)CCC(c2ccc(Cl)cc2)=C(CN2CCN(c3ccc(C(=O)NS(=O)(=O)c4ccc(N[C@H](CCN5CCOCC5)CSc5ccccc5)c(S(=O)(=O)C(F)(F)F)c4)cc3)CC2)C1 [Navitoclax] (partner 0.5 µM)
Summary of the method: (§1)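 Relative viability equals treated-well nuclei counts divided by vehicle-well nuclei counts. Counts came from 4× images of lung cancer cell lines grown in 1536-well plates for 5 days after pin-tool dosing on the day after seeding. Dosing used one drug alone or a fixed anchor-drug dose plus five library-drug doses (not always all listed) in √10 steps, and values are medians of duplicate plates.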

Bosutinib + Linsitinib = compound: COc1cc(Nc2c(C#N)cnc3cc(OCCCN4CCN(C)CC4)c(OC)cc23)c(Cl)cc1Cl [Bosutinib] + C[C@]1(O)C[C@@H](c2nc(-c3ccc4ccc(-c5ccccc5)nc4c3)c3c(N)nccn32)C1 [Linsitinib] (partner 1 µM)
Summary of the method: as §1

Bosutinib + Bortezomib = compound: COc1cc(Nc2c(C#N)cnc3cc(OCCCN4CCN(C)CC4)c(OC)cc23)c(Cl)cc1Cl [Bosutinib] + CC(C)C[C@H](NC(=O)[C@H](Cc1ccccc1)NC(=O)c1cnccn1)B(O)O [Bortezomib] (partner 0.002 µM)
Summary of the method: as §1

Bosutinib + Crizotinib = compound: COc1cc(Nc2c(C#N)cnc3cc(OCCCN4CCN(C)CC4)c(OC)cc23)c(Cl)cc1Cl [Bosutinib] + C[C@@H](Oc1cc(-c2cnn(C3CCNCC3)c2)cnc1N)c1c(Cl)ccc(F)c1Cl [Crizotinib] (partner 1 µM)
Summary of the method: as §1

Bosutinib + Pictilisib = compound: COc1cc(Nc2c(C#N)cnc3cc(OCCCN4CCN(C)CC4)c(OC)cc23)c(Cl)cc1Cl [Bosutinib] + CS(=O)(=O)N1CCN(Cc2cc3nc(-c4cccc5[nH]ncc45)nc(N4CCOCC4)c3s2)CC1 [Pictilisib] (partner 1 µM)
Summary of the method: as §1

Bosutinib + Lapatinib = compound: COc1cc(Nc2c(C#N)cnc3cc(OCCCN4CCN(C)CC4)c(OC)cc23)c(Cl)cc1Cl [Bosutinib] + CS(=O)(=O)CCNCc1ccc(-c2ccc3ncnc(Nc4ccc(OCc5cccc(F)c5)c(Cl)c4)c3c2)o1 [Lapatinib] (partner 2 µM)
Summary of the method: as §1

Bosutinib + Foretinib = compound: COc1cc(Nc2c(C#N)cnc3cc(OCCCN4CCN(C)CC4)c(OC)cc23)c(Cl)cc1Cl [Bosutinib] + COc1cc2c(Oc3ccc(NC(=O)C4(C(=O)Nc5ccc(F)cc5)CC4)cc3F)ccnc2cc1OCCCN1CCOCC1 [Foretinib] (partner 0.25 µM)
Summary of the method: as §1

Bosutinib + Olaparib = compound: COc1cc(Nc2c(C#N)cnc3cc(OCCCN4CCN(C)CC4)c(OC)cc23)c(Cl)cc1Cl [Bosutinib] + O=C(c1cc(Cc2n[nH]c(=O)c3ccccc23)ccc1F)N1CCN(C(=O)C2CC2)CC1 [Olaparib] (partner 8 µM)
Summary of the method: as §1

Bosutinib + Alpelisib = compound: COc1cc(Nc2c(C#N)cnc3cc(OCCCN4CCN(C)CC4)c(OC)cc23)c(Cl)cc1Cl [Bosutinib] + Cc1nc(NC(=O)N2CCC[C@H]2C(N)=O)sc1-c1ccnc(C(C)(C)C(F)(F)F)c1 [Alpelisib] (partner 2 µM)
Summary of the method: as §1

Cell Line	relative viability (Bosutinib; 0.01 µM)	relative viability (Bosutinib; 0.03162 µM)	relative viability (Bosutinib; 0.1 µM)	relative viability (Bosutinib; 1 µM)	relative viability (Bosutinib + Navitoclax; first compound 0.01 µM)	relative viability (Bosutinib + Navitoclax; first compound 0.03162 µM)	relative viability (Bosutinib + Navitoclax; first compound 0.1 µM)	relative viability (Bosutinib + Navitoclax; first compound 1 µM)	relative viability (Bosutinib + Linsitinib; first compound 0.01 µM)	relative viability (Bosutinib + Linsitinib; first compound 0.03162 µM)	relative viability (Bosutinib + Linsitinib; first compound 0.1 µM)	relative viability (Bosutinib + Linsitinib; first compound 1 µM)	relative viability (Bosutinib + Bortezomib; first compound 0.01 µM)	relative viability (Bosutinib + Bortezomib; first compound 0.03162 µM)	relative viability (Bosutinib + Bortezomib; first compound 0.1 µM)	relative viability (Bosutinib + Bortezomib; first compound 1 µM)	relative viability (Bosutinib + Crizotinib; first compound 0.01 µM)	relative viability (Bosutinib + Crizotinib; first compound 0.03162 µM)	relative viability (Bosutinib + Crizotinib; first compound 0.1 µM)	relative viability (Bosutinib + Crizotinib; first compound 1 µM)	relative viability (Bosutinib + Pictilisib; first compound 0.01 µM)	relative viability (Bosutinib + Pictilisib; first compound 0.03162 µM)	relative viability (Bosutinib + Pictilisib; first compound 0.1 µM)	relative viability (Bosutinib + Pictilisib; first compound 1 µM)	relative viability (Bosutinib + Lapatinib; first compound 0.01 µM)	relative viability (Bosutinib + Lapatinib; first compound 0.03162 µM)	relative viability (Bosutinib + Lapatinib; first compound 0.1 µM)	relative viability (Bosutinib + Lapatinib; first compound 1 µM)	relative viability (Bosutinib + Foretinib; first compound 0.01 µM)	relative viability (Bosutinib + Foretinib; first compound 0.03162 µM)	relative viability (Bosutinib + Foretinib; first compound 0.1 µM)	relative viability (Bosutinib + Foretinib; first compound 1 µM)	relative viability (Bosutinib + Olaparib; first compound 0.01 µM)	relative viability (Bosutinib + Olaparib; first compound 0.03162 µM)	relative viability (Bosutinib + Olaparib; first compound 0.1 µM)	relative viability (Bosutinib + Olaparib; first compound 1 µM)	relative viability (Bosutinib + Alpelisib; first compound 0.01 µM)	relative viability (Bosutinib + Alpelisib; first compound 0.03162 µM)	relative viability (Bosutinib + Alpelisib; first compound 0.1 µM)	relative viability (Bosutinib + Alpelisib; first compound 1 µM)
Calu-6	1.01	1.02	0.976	0.837	0.814	0.801	0.757	0.821	1.05	0.957	0.96	0.794	1.01	0.954	1.02	0.905	0.747	0.796	0.798	0.788	0.937	0.923	0.867	0.834	1.15	1.14	1.11	0.893	0.927	0.888	0.932	0.772	0.596	0.561	0.598	0.472	0.927	1.07	0.958	0.824
EBC-1	1.05	0.956	0.984	0.881	0.393	0.461	0.519	0.609	0.93	0.906	0.937	0.916	0.484	0.492	0.513	0.523	0.199	0.185	0.183	0.191	0.347	0.463	0.404	0.358	0.216	0.221	0.187	0.204	0.115	0.11	0.104	0.0985	0.693	0.737	0.659	0.658	0.787	0.798	0.833	0.736
